Test results reported in patent US10308617B2, “Triazole benzamide derivatives and the compositions and methods of treatment regarding the same” (An2H Discovery Limited, priority 2016, dated 2019).

Target: Parkin (Homo sapiens, UniProt O60260)
Assay: Parkin pUB Auto-ubiquitinylation Assay (TR-FRET)
Format: biochemical
Settings: Parkin activation, pUb activated Parkin; read-out: Auto-ubiq EC50 (μM) [Example 3]
Text: A Parkin pUB Auto-ubiquitinylation Assay is used to evaluate a compound's potency to activate Parkin's ability to Auto-ubiquitinylate itself.
The principle of this assay is that the E3 Ligase Parkin catalyzes the transfer of Ubiquitin to target proteins, but also has the ability to auto-ubiquitinylate itself. The phospho-Ubiquition (pUb) added to the assay alters the Parkin to a state where small molecule activators can enable the Parkin to auto-ubiquitinylate though the E1-E2 cascade reaction. The use of a Eu cryptate Ubiquition and anti 6His-d2 that binds to the His tagged Parkin will give a signal when the Eu cryptate Ubiquition is auto-ubiquitinylate onto the Parkin which can be monitored by TR-FRET.
Similar to the Activity-based probe assay in Example 2, screening for activating compounds can be distinguished from the controls as follows: • 100% activation signal=pUb activated Parkin+40 nM control activator in DMSO. • 0% activation signal=pUb activated Parkin+DMSO only. • Parkin activators can be identified by an increase of the 0% activation signal TR-FRET signal. Materials: • Assay Plate: White 384 well plate (Corning 3572) • Enzyme 1: E1 (Ubiquitin-activating enzyme/UBE1 Boston Biochem E-305) • Enzyme 2: E2 (UBcH7/Ube2L3 Boston Biochem E2-640) • Enzyme 3: Parkin-His tagged 203 μM (10.5 mg/ml) • pUb: Phospho-Ubiquitin (S65) (Boston Biochem U-102) • Eu Cryptate Reagent: Ubiquitin Eu (CisBio 61UBIKLA) • DMSO: DMSO (Sigma-34869-2.5L) • Reaction Buffer: 50 mM HEPES, 50 mM NaCl, 1 mM MgCl2, 0.005% Tween 20, 0.1% PF-127 (Fisher Scientific 50-310-494), pH 8.5 • Detection Buffer: 50 mM HEPES, 50 mM NaCl, 800 mM KF, 5 mM EDTA, 0.005% Tween 20, 0.1% PF-127, pH 8.5 • Detection Reagent Z: 13.4 nM Anti-6His-d2 in detection buffer • d2 Reagent: Anti-6His-d2 (CisBio 61HISDLA)
Enzyme Reaction (15 min pre-incubation with Parkin, pUb and activator only) • Parkin: 196 nM • pUb: 196 nM • DMSO: 1% DMSO • E1: 5 nM • E2: 50 nM • Ubiquitin Eu: 8.8 nM • Reaction time: 120 minutes • Temperature: 22° C. • Total volume: 10 μl reaction
Take 10 μl of Enzyme Reaction above and add 10 μl detection Reagent Z under the following conditions:
Assay Procedure: • 1) Load assay plate wells with 4.9 μl 400.0 nM Parkin, 400 nM pUb in reaction buffer by use of Eppendorf 12-channel pipette. • 2) Deliver 0.1 μl 100× activator candidates in DMSO by use of Echo 555 compound dispenser. Highest 100× concentration=100 μm and then twofold dilutions. Add each compound and control in duplicate wells. • 3) Spin 1000 rpm, 2 minutes, at room temp. • 4) Incubate plate for 15 minutes at room temp. • 5) Add 5 μl 10 nM E1, 100 nM E2, 17.6 nM Ubiquitin Eu and 2 mM ATP in Reaction Buffer by use of Eppendorf 12-channel pipette. • 6) Spin 1000 rpm, 2 minutes, at room temp. • 7) Incubate plate for 120 minutes at room temp. • 8) Add 10 μl 13.4 nM anti his d2 in detection buffer by use of Eppendorf 12-channel pipette. • 9) Spin 1000 rpm, 2 minutes, at room temp. • 10) Incubate plate for 120 minutes at room temp. • 11) Read plates on Perkin Elmer Envision instrument with the following parameters: • LANCE dual laser protocol loaded into the Envision® software • Top Mirror: LANCE/DELFIA Duel/Bias (Bar code 446) • Emission Filter: APC 665 EM (Bar code 205) • 2nd Emission Filter: Europium 615 EM (Bar code 203) • Read 655 nm (channel 1) and 615 nm (channel 2) wavelengths on Envision®
Data Analysis: The Data can be read in CSV files. There are two tables in those CSV files, which are the values of 655 nm (channel 1) and 615 nm (channel 2) wavelengths respectively. The data is converted to an HTRF Ratio=(Channel 1/Channel 2)*10,000
The average of all the 0 uM controls (DMSO only)=BKGD (Background—0% activation). Subtract BKGD from each HTRF Ratio value=HTRF-BKGD. The average of all the […] control activator in DMSO controls=Max (100% activation). The following equation is then used to calculate % Activation for each well/candidate as follows: % Activation=(HTRF-BKGD/Max)*100. […]

Chain of Parkin (O60260 whole entry, other chains not shown): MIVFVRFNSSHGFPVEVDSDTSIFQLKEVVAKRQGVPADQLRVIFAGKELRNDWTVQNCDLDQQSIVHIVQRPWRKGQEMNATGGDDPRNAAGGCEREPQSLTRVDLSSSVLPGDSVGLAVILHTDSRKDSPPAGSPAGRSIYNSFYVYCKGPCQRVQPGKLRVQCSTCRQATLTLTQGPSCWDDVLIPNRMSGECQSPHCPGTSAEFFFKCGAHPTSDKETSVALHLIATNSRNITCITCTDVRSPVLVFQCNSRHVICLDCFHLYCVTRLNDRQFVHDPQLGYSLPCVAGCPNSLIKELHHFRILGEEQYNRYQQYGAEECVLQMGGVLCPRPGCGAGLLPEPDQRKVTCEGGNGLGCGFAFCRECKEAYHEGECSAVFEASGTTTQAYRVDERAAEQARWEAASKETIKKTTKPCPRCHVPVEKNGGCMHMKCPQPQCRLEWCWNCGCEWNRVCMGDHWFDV

| SMILES | EC50 [µM] |
| --- | --- |
| CN(C(=O)c1ccccc1)c1nc(NC(=O)c2ccccc2)n(-c2ccccc2)n1 [G] | > 40 |
| O=C(Nc1nc(Nc2ncnc3ccccc23)nn1-c1ccccc1)c1ccccc1 [I] | > 40 |
| CN(C(=O)c1ccccc1)c1nc(N(C)C(=O)c2ccccc2)n(-c2ccccc2)n1 [J] | > 40 |
| Cc1ccccc1-n1nc(NC(=O)c2ccccc2)nc1NC(=O)c1ccccc1 [M] | > 40 |
| O=C(Nc1nc(-c2ccccn2)nn1-c1ccccc1)c1ccccc1 [T] | > 40 |
| O=C(Nc1nc(Nc2nccc3ccccc23)n(-c2ccccc2)n1)c1ccccc1 [U] | > 40 |
| CN(C(=O)c1ccccc1)c1nc(NC(=O)c2ccccc2)nn1-c1ccccc1 [V] | > 40 |
| CCN(CC)c1nc(Nc2nc(NC(=O)c3ccccc3)nn2-c2ccccc2)c2ccccc2n1 [W] | > 40 |
| CCN(CC)c1nc(Nc2nc(NC(=O)c3ccccc3)nn2-c2ccccc2)nc2ccccc12 [X] | > 40 |
| O=C(Nc1nc(Nc2ncnc3ccccc23)n(-c2ccccc2)n1)c1ccco1 [Z] | > 40 |
